Measurements reported in patent US5200404A, “3-tetrazolylthiomethyl cephalosporin antibiotics” (ICI Pharma, priority 1990, dated 1993).
≈ marks a conversion by molar mass, not a printed value. Where two headings read alike, the source gives them in different places.

Assays:
A. anitratus (A8322001) = assay: MIC by agar-dilution, Diagnostic Sensitivity Test agar; assay type: cell-based; settings: Acinetobacter calcoaceticus
Excerpt: (§1) The following results were obtained for Example 1 and two comparative compounds on a standard in vitro test system using Diagnostic Sensitivity Test agar medium. The antibacterial activity is described in terms of the minimum inhibitory concentration (MIC) determined by the agar-dilution technique with an inoculum size of 10^4 CFU/spot.

[1] = test system: Citro. freundii DR(A8382031); assay: as above; assay type: cell-based; settings: Citrobacter freundii
Excerpt: as §1

[2] = test system: Citro. freundii DR(A8382034); assay: as above; assay type: cell-based; settings: Citrobacter freundii, inoculum 10^4 CFU/spot
Excerpt: as §1

E. coli DCO(A8341098) = assay: as above; assay type: cell-based; settings: Escherichia coli, inoculum 10^4 CFU/spot
Excerpt: as §1

[3] = test system: E. coli JS3 RTEM(A8341135); assay: as above; assay type: cell-based; settings: Escherichia coli
Excerpt: as §1

[4] = test system: Ent. cloacae DR(A8401108); assay: as above; assay type: cell-based; settings: Enterobacter cloacae, inoculum 10^4 CFU/spot
Excerpt: as §1

[5] = test system: Ent. cloacae DR(A8401109); assay: as above; assay type: cell-based; settings: Enterobacter cloacae, inoculum 10^4 CFU/spot
Excerpt: as §1

[6] = test system: Ent. cloacae P99-(A8401054); assay: as above; assay type: cell-based; settings: Enterobacter cloacae
Excerpt: as §1

[7] = test system: K. oxytoca D1^+ (A8395056); assay: as above; assay type: cell-based; settings: Klebsiella oxytoca
Excerpt: as §1

[8] = test system: P. aeruginosa 18S(A8101024); assay: as above; assay type: cell-based; settings: Pseudomonas aeruginosa
Excerpt: as §1

[9] = test system: P. aeruginosa DR18SH(A81011020); assay: as above; assay type: cell-based; settings: Pseudomonas aeruginosa
Excerpt: as §1

[10] = test system: P. aeruginosa PU21(A8101028); assay: as above; assay type: cell-based; settings: Pseudomonas aeruginosa
Excerpt: as §1

P. stuartii DR(A8382031) = assay: as above; assay type: cell-based; settings: Providencia stuartii
Excerpt: as §1

Pr. morganii (A8433001) = assay: as above; assay type: cell-based; settings: Morganella morganii, inoculum 10^4 CFU/spot
Excerpt: as §1

[11] = test system: Pr. morganii DR(A8433062); assay: as above; assay type: cell-based; settings: Morganella morganii, inoculum 10^4 CFU/spot
Excerpt: as §1

S. dublin (A8369001) = assay: as above; assay type: cell-based; settings: Salmonella enterica
Excerpt: as §1

[12] = test system: Serr. marcesens (A8421003); assay: as above; assay type: cell-based; settings: inoculum 10^4 CFU/spot
Excerpt: as §1

[13] = test system: Serr. marcesens DR(A8421078); assay: as above; assay type: cell-based; settings: inoculum 10^4 CFU/spot
Excerpt: as §1

[14] = test system: Strep. pneumoniae (A8671001); assay: as above; assay type: cell-based; settings: Streptococcus pneumoniae
Excerpt: as §1

[15] = test system: Strep. pyogenes (A8681018); assay: as above; assay type: cell-based; settings: Streptococcus pyogenes
Excerpt: as §1

[16] = test system: Ent. cloacae P99+(A8401053); assay: as above; assay type: cell-based; settings: Enterobacter cloacae
Excerpt: as §1

half-life in marmosets = assay type: in vivo
Method: when dosed to marmosets at 3 mg/kg.

## CC(C)(O/N=C(\C(=O)N[C@@H]1C(=O)N2C(C(=O)[O-])=C(C[n+]3ccccc3)CS[C@H]12)c1csc(N)n1)C(=O)O [(B), ceftazidime, reference compound]
A. anitratus (A8322001)
  MIC: 16 mg/L (≈ 29.3 µM)
[1]
  MIC: 128 mg/L (≈ 234 µM)
[2]
  MIC: 64 mg/L (≈ 117 µM)
E. coli DCO(A8341098)
  MIC: 0.125 mg/L (≈ 0.229 µM)
[3]
  MIC: 0.06 mg/L (≈ 0.11 µM)
[4]
  MIC: 32 mg/L (≈ 58.5 µM)
[5]
  MIC: 32 mg/L (≈ 58.5 µM)
[6]
  MIC: 0.125 mg/L (≈ 0.229 µM)
[7]
  MIC: 0.5 mg/L (≈ 0.915 µM)
[8]
  MIC: 2 mg/L (≈ 3.66 µM)
[9]
  MIC: 16 mg/L (≈ 29.3 µM)
[10]
  MIC: 1 mg/L (≈ 1.83 µM)
P. stuartii DR(A8382031)
  MIC: 4 mg/L (≈ 7.32 µM)
Pr. morganii (A8433001)
  MIC: 0.06 mg/L (≈ 0.11 µM)
[11]
  MIC: 16 mg/L (≈ 29.3 µM)
S. dublin (A8369001)
  MIC: 0.125 mg/L (≈ 0.229 µM)
[12]
  MIC: 0.25 mg/L (≈ 0.457 µM)
[13]
  MIC: 0.5 mg/L (≈ 0.915 µM)
[14]
  MIC: 0.125 mg/L (≈ 0.229 µM)
[15]
  MIC: 0.125 mg/L (≈ 0.229 µM)

## CC(C)(O/N=C(\C(=O)NC1C(=O)N2C(C(=O)O)=C(CSc3nnnn3-c3cc(O)c(O)c(Cl)c3CC(=O)O)CS[C@H]12)c1csc(N)n1)C(=O)O (stereo partly shown) [Example 1, 7-[2-(2-Aminothiazol-4-yl)-2-((Z)-1-carboxy-1-methylethoxyimino)acetamido]-3-[(1-(2-carboxymethyl-3-chloro-4,5-dihydroxyphenyl)tetrazol-5-yl)thiomethyl]ceph-3-em-4-carboxylic acid]
A. anitratus (A8322001); A. anitratus (A8322001), inoculum 10^4 CFU/spot, read-out: MIC
  MIC: 0.06 mg/L (≈ 0.0779 µM)
[1]; Citro. freundii DR(A8382031), inoculum 10^4 CFU/spot, read-out: MIC
  MIC: 0.25 mg/L (≈ 0.325 µM)
[2]
  MIC: 0.5 mg/L (≈ 0.649 µM)
E. coli DCO(A8341098)
  MIC: 0.002 mg/L (≈ 0.0026 µM)
[3]
  MIC: 0.001 mg/L (≈ 0.0013 µM)
[4]
  MIC: 0.25 mg/L (≈ 0.325 µM)
[5]
  MIC: 0.125 mg/L (≈ 0.162 µM)
[16]
  MIC: 1 mg/L (≈ 1.3 µM)
[6]; Ent. cloacae P99-(A8401054), inoculum 10^4 CFU/spot, read-out: MIC
  MIC: 0.125 mg/L (≈ 0.162 µM)
[7]; K. oxytoca D1^+ (A8395056), inoculum 10^4 CFU/spot, read-out: MIC
  MIC: 0.004 mg/L (≈ 0.00519 µM)
[8]; P. aeruginosa 18S(A8101024), inoculum 10^4 CFU/spot, read-out: MIC
  MIC: 0.004 mg/L (≈ 0.00519 µM)
[9]; P. aeruginosa DR18SH(A81011020), inoculum 10^4 CFU/spot, read-out: MIC
  MIC: 0.016 mg/L (≈ 0.0208 µM)
[10]; P. aeruginosa PU21(A8101028), inoculum 10^4 CFU/spot, read-out: MIC
  MIC: 0.008 mg/L (≈ 0.0104 µM)
P. stuartii DR(A8382031); P. stuartii DR(A8382031), inoculum 10^4 CFU/spot, read-out: MIC
  MIC: 0.03 mg/L (≈ 0.039 µM)
Pr. morganii (A8433001)
  MIC: 0.008 mg/L (≈ 0.0104 µM)
[11]
  MIC: 0.06 mg/L (≈ 0.0779 µM)
S. dublin (A8369001); S. dublin (A8369001), inoculum 10^4 CFU/spot, read-out: MIC
  MIC: 0.004 mg/L (≈ 0.00519 µM)
[12]
  MIC: 0.008 mg/L (≈ 0.0104 µM)
[13]
  MIC: 0.008 mg/L (≈ 0.0104 µM)
[14]; Strep. pneumoniae (A8671001), inoculum 10^4 CFU/spot, read-out: MIC
  MIC: 0.03 mg/L (≈ 0.039 µM)
[15]; Strep. pyogenes (A8681018), inoculum 10^4 CFU/spot, read-out: MIC
  MIC: 0.5 mg/L (≈ 0.649 µM)
half-life in marmosets; in words
  half-life (t 1/2) compared with representative compounds of EP-A-272827: substantially and significantly longer
half-life in marmosets; marmoset, in vivo, 3 mg/kg
  half-life: 20.7 h
